The text below walks through data of ChEMBL document CHEMBL1201862, “PubChem BioAssay data set” (2004).

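Dose response: 5 concentrations. Exposure: 48 h. Format: 96-well plates. Endpoint: linear interpolation; highest concentration if not reached. GI50: concentration for 50% inhibition of growth.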 Active and inactive are the calls of the source. Rule as the data show it: active = GI50 up to about 1.1 µM and inactive = higher.

Experiment in all cases: DTP human tumour cell line panel, 48 h
Assay [1] deals with MCF7.
The subject of assay [2] is ACHN.
In assay [3] the test system is HCT-15.
For assay [4], the system named is A549.
Assay [5] relates to HCT-116.
Assay [6] has as its system M14.
Assay [7] deals with NCI-H226.
Assay [8] has as its system COLO 205.
Assay [9] deals with OVCAR-8.
Assay [10] relates to K562.
In assay [11] the test system is 786-0.
Assay [12] has as its system Hs-578T.
Assay [13] deals with HL-60.
Assay [14] relates to OVCAR-3.
The test system of assay [15] is IGROV-1.
For assay [16], the system named is MDA-MB-231.
Assay [17] deals with OVCAR-5.
In assay [18] the test system is NCI/ADR-RES.
Assay [19] has as its system SK-MEL-5.
Assay [20] has as its system T47D.

As to `Cc1ccc2nc(CN(CCO)CCO)cc(=O)n2c1`, the GI50 in [1] is > 100 µM (inactive); in assay [2], > 100 µM (inactive); in assay [3] it was over 100 µM; in assay [4], > 100 µM (inactive); in assay [5], > 100 µM (inactive); in assay [6] it was > 100 µM (inactive). The GI50 in [7], in [8], in assay [9], in assay [10], in assay [11] and in assay [12] was > 100 µM (inactive) throughout. Besides, the GI50 in assay [13], in assay [14], in assay [15], in [16], in [17] and in assay [18] was > 100 µM (inactive) in each case.

With `ClCCN(CC#CCCCC#CCN(CCCl)CCCl)CCCl`, the GI50 in assay [1] is 8.75 µM (inactive); in assay [2] it was 3.82 µM (inactive); in assay [3], 12.4 µM; in assay [4], 8.99 µM (inactive); in [5], 10.4 µM (inactive); in assay [6] it was 14.5 µM (inactive). In addition, the GI50 was 12.9 µM (inactive) in assay [7]; 15.6 µM (inactive) in [8]; 11 µM (inactive) in assay [9]; 11 µM (inactive) in assay [10]; 4.61 µM (inactive) in [11]; 1.26 µM (inactive) in [13]. Besides, the GI50 is 11.3 µM (inactive) in assay [19]; 11.6 µM (inactive) in [14]; 14.2 µM (inactive) in assay [15]; 11.7 µM (inactive) in [17]; 14.5 µM (inactive) in assay [18].

Turning to `Cc1cccc2c1nc1n2C(=O)c2ccccc2-1`, the GI50 is > 100 µM (inactive) in [1]; > 100 µM (inactive) in [2]; over 100 µM in assay [3]; > 100 µM (inactive) in [4]; > 100 µM (inactive) in assay [5]; > 100 µM (inactive) in assay [6]. Besides, the GI50 in assay [7], in [8], in [9], in [10], in [11] and in [13] was > 100 µM (inactive) throughout. For the same molecule, the GI50 in assay [19], in assay [14], in assay [15], in assay [17] and in assay [18] was > 100 µM (inactive) throughout.

Consider `COC(=O)[C@](NC(=O)OCc1ccccc1)([C@@H](C)Sc1ccc(C)cc1)C(F)(F)F`, for which the GI50 was 28.9 µM (inactive) in assay [1]; 60.3 µM (inactive) in [2]; 27.5 µM in assay [3]; 34.6 µM (inactive) in [4]; 35.4 µM (inactive) in [5]; 68.2 µM (inactive) in [6]. For the same molecule, the GI50 in assay [8] was 19.2 µM (inactive); in assay [9], 19.5 µM (inactive); in [10] it was 23.6 µM (inactive); in assay [11], 59.7 µM (inactive); in assay [12] it was 44.9 µM (inactive); in assay [13] it was 17.4 µM (inactive). In addition, the GI50 was 18.3 µM (inactive) in assay [19]; > 100 µM (inactive) in assay [14]; 16.5 µM (inactive) in [15]; > 100 µM (inactive) in [17]; 36 µM (inactive) in assay [18].

`COC12C=CC(CC1)C1C(=O)c3c(C)c(C)n(C)c3C(=O)C12` (centres undefined): the GI50 in assay [1] was > 100 µM (inactive); in assay [2], 90.6 µM (inactive); in [3], 15.4 µM; in assay [5] it was 89.5 µM (inactive); in assay [6], > 100 µM (inactive); in assay [7] it was 25.9 µM (inactive). In addition, the GI50 in [8] is > 100 µM (inactive); in assay [9], > 100 µM (inactive); in assay [10], > 100 µM (inactive); in assay [11], > 100 µM (inactive); in assay [12] it was 70.3 µM (inactive); in assay [19], 19.6 µM (inactive). Besides, the GI50 in [14] was > 100 µM (inactive); in assay [15] it was 73.5 µM (inactive); in assay [17] it was > 100 µM (inactive); in assay [18], > 100 µM (inactive); in assay [20], > 100 µM (inactive).

`Oc1ccc(O)c(Sc2nnc(CCCCCCCCc3nnc(Sc4cc(O)ccc4O)o3)o2)c1`: the GI50 was 33.8 µM (inactive) in assay [1]; 28.1 µM (inactive) in assay [2]; 88.7 µM in assay [3]; > 100 µM (inactive) in [4]; 18.1 µM (inactive) in [5]; > 100 µM (inactive) in assay [6]. The GI50 was > 100 µM (inactive) in [7]; 48.3 µM (inactive) in [8]; 39.8 µM (inactive) in [10]; 19 µM (inactive) in [11]; > 100 µM (inactive) in assay [19]; 96.8 µM (inactive) in assay [15]. Moreover, the GI50 in assay [16] is > 100 µM (inactive); in assay [17], 95.9 µM (inactive); in assay [18], > 100 µM (inactive).

As to `CN(C)CCNC(=O)c1cccc2c(NC(CS)C(=O)O)c3ccccc3nc12` (centres undefined), the GI50 in assay [1] was 2.95 µM (inactive); in assay [2], 4.49 µM (inactive); in assay [3], 3.72 µM; in assay [4] it was 4.62 µM (inactive); in assay [5] it was 4.73 µM (inactive); in [6] it was 4.39 µM (inactive). Moreover, the GI50 is 5.53 µM (inactive) in assay [7]; 3.01 µM (inactive) in assay [8]; 13.5 µM (inactive) in [9]; 3.79 µM (inactive) in assay [10]; 6.64 µM (inactive) in [11]; 3.3 µM (inactive) in assay [13]. Moreover, the GI50 was 3.07 µM (inactive) in [19]; 13 µM (inactive) in [14]; 4.88 µM (inactive) in [15]; 6.18 µM (inactive) in assay [16]; 4.52 µM (inactive) in [17]; 9.82 µM (inactive) in assay [18].

With `NC(=O)OCc1c(-c2ccccc2)nn(-c2ccccc2)c1COC(N)=O`, the GI50 in [1] was > 100 µM (inactive); in assay [3] it was over 100 µM; in [4], > 100 µM (inactive); in assay [5] it was > 100 µM (inactive); in assay [6], > 100 µM (inactive); in assay [7] it was > 100 µM (inactive). For the same molecule, the GI50 in assay [8] is > 100 µM (inactive); in assay [9], > 100 µM (inactive); in [11], > 100 µM (inactive); in [19], > 100 µM (inactive); in assay [14], > 100 µM (inactive); in [15], > 10 µM (inactive). Further, the GI50 in [16], in [17], in assay [18] and in assay [20] was > 100 µM (inactive) throughout.

Consider `CC(C)C(Br)CCC1=CCC(Br)(Br)C1` (centres undefined), for which the GI50 was 10.8 µM (inactive) in [1]; 16.9 µM (inactive) in assay [2]; 17.9 µM (inactive) in assay [4]; 14.6 µM (inactive) in assay [5]; 3.81 µM (inactive) in [6]; 11.9 µM (inactive) in assay [7]. The GI50 in assay [8] is 15.7 µM (inactive); in assay [10] it was 4.57 µM (inactive); in assay [11] it was 15.7 µM (inactive); in assay [12] it was 18.6 µM (inactive); in [13] it was 3.4 µM (inactive); in assay [19], 5.45 µM (inactive). Moreover, the GI50 is 13 µM (inactive) in assay [14]; 3.21 µM (inactive) in assay [15]; 5.27 µM (inactive) in assay [16]; 16.7 µM (inactive) in assay [17]; 22.6 µM (inactive) in assay [18].

Regarding `COC(=O)C1(C(=O)OC)N=C(C)OC1c1ccoc1` (centres undefined), the GI50 was > 100 µM (inactive) in assay [1]; > 100 µM (inactive) in assay [2]; over 100 µM in assay [3]; > 100 µM (inactive) in assay [4]; > 100 µM (inactive) in assay [5]; > 100 µM (inactive) in assay [6]. For the same molecule, the GI50 in assay [7] was > 100 µM (inactive); in [8], > 100 µM (inactive); in [9], > 100 µM (inactive); in [10] it was 99.8 µM (inactive); in [11], > 100 µM (inactive); in assay [13] it was > 100 µM (inactive). Besides, the GI50 in assay [19], in assay [14], in [17], in [18] and in [20] was > 100 µM (inactive) each time.

Consider `N=S(c1ccccc1)c1ccccc1[N+](=O)[O-]` (centres undefined), for which the GI50 is 17.3 µM (inactive) in assay [2]; 16.6 µM in assay [3]; 16.7 µM (inactive) in [4]; 17.8 µM (inactive) in assay [5]; 14.4 µM (inactive) in assay [6]; 11.9 µM (inactive) in [7]. Besides, the GI50 in [8] is 19.8 µM (inactive); in assay [9], 23.8 µM (inactive); in assay [10] it was 10.4 µM (inactive); in assay [11] it was 14.9 µM (inactive); in [13], 12.9 µM (inactive); in assay [19] it was 15 µM (inactive). Besides, the values for the GI50 in [14], in [15] and in [17] were 10.6 µM (inactive), 18.1 µM (inactive) and 20.1 µM (inactive), respectively.

In the case of `O=C1C(=O)N(c2ccc(Cl)cc2)C(=O)C(=O)C1c1nc2ccccc2o1`, the GI50 in assay [2] was > 100 µM (inactive); in [3] it was over 100 µM; in assay [4], > 100 µM (inactive); in [5] it was > 100 µM (inactive); in [6], > 100 µM (inactive); in assay [7], > 100 µM (inactive). For the same molecule, the GI50 in [8], in assay [9], in [10], in [11], in [13] and in [19] was > 100 µM (inactive) throughout. The GI50 in assay [14], in assay [15] and in [17] was > 100 µM (inactive) each time.

The term GI50 denotes the concentration giving 50% growth inhibition.
